Laboratory results reported in paper PMC5295395, “Inhibition of PlexA1-mediated brain tumor growth and tumor-associated angiogenesis using a transmembrane domain targeting peptide” (Oncotarget, 2016).

Experiments:
NRP1/PlexA1 complexes = experiment: in situ proximity ligation assay (Duo-link), NRP1/PlexA1 complexes in U373MG cells; format: cell-based, human; conditions: U373MG cells, MTP-PlexA1 10^−7 M, vs vehicle
Protocol: “Zip sequence” is the positive control of dimerization and “Empty” is the negative control of this bacterial system. (C, D) SPR assay (Biacore) to quantify MTP-PlexA1 interactions with PLexA1, NRP1 and VEGFR2 TMDs. (E) Proximity ligation assay showing that MTP-PlexA1 (10^−7 M) decreases the number of PLexA1-NRP1 interactions (green dots) in U373MG cells (scale bar = 20 μm).
Additional specificity controls were performed using a mutated version of MTP-PlexA1 (in which 3 glycines of the GxxxGxxxG motif were replaced by 3 valines or MTP-Neu, an anti-breast cancer peptide known to not interact with PlexA1) as described in Supplementary Figure S2. […] Similar results were obtained when cells were exposed to VEGF (39.4% NRP1 and 35.4% PlexA4, Figure 4B).
Supplementary Figure S2: Specificity controls were performed using a mutated version of MTP-PlexA1 […]
LVIVAVLIAYKRK). Such mutations have been previously shown to be sufficient to lose activity of NRP1 antagonist membrane domain targeting peptide (Roth et al., 2008 Mol Biol Cell). We also used MTP-Neu, a transmembrane domain targeting peptide known to […]
M, a concentration previously shown to produce maximal antagonist activity of the peptide. Additionally, we also repeated the in vitro angiogenic assay on matrigel using HUVEC cells. […]
to MTP-PlexA1. These experiments confirmed the specificity of MTP-PlexA1.
(1 picture or pasted object on this page, not shown here)

[1] = system: PH3 positive cells in U118MG-Luc tumors; experiment: PH3 immunostaining of U118MG-Luc xenograft tumor sections; format: in vivo, human cells in mouse; conditions: 5 sections per tumor, vs control; p = 0.0022, Mann Whitney
Protocol: To address the biological consequences of MTP-PlexA1-mediated inhibition of PlexA1 we used the U118MG-Luc glioma cell line genetically engineered to express the luciferase reporter gene. […] Cells were then grafted subcutaneously and tumor growth was monitored every 5 days for a total period of 20 days. […] The quantitative analysis of the cumulated luminescent signal acquired all along the protocol confirmed the strong reduction of tumor development translating into a marked 75% reduction of the averaged luminescent signal at the end point (Figure 6C). […] In order to clarify the mechanism by which MTP-PlexA1 is exerting tumor growth inhibition we collected tumors and analyzed them histologically.
(B) Representative photographs illustrating the kinetic of tumor growth over 20 days in the two experimental groups. […] (D) Waterfall plot of best response representing the percent change in tumor volume of individual treated animals (grey bars, n = 10) compared to the average tumor volume increased determined in the control group (dark bars, n = 10). […] (F) Representative microphotographs and related quantification of PH3 positive cells in tumor slices (G) Representative microphotographs and related quantification of CD31 positive regions in tumor slices (% CD31 per μm² of tumors).

NRP1-PlexA1 complex = experiment: co-immunoprecipitation of NRP1 with PlexA1 in U373MG cells; format: cell-based, human; conditions: 10^−7 M peptide 1 h
Protocol: (§1) (C) Rac-1 activation assay in resting condition and after Sema3A-induced Rac-1 activation in U373 MG cells. (D) Western blot analysis of phosphorylated Akt, total Akt and tubulin in U373MG cells treated with the vehicle (LDS 72 μM), Sema3A (100 ng/ml) or Sema3A + MTP-PlexA1 (10^−7 M). The lower panel is showing the quantification of the p-Akt/Akt ratio in the different conditions. (E) MTP-PlexA1 decreases VEGFR-2 phosphorylation induced by VEGF (100 ng/ml) in HUVEC cells. […]
(§2) in 20 mM sodium acetate (pH 4.5) at a flow rate of 5 μl/ min 10–7 M of MTP-PlexA1 or Vehicle (LDS, 72 µM) during until desired surface densities, measured in response 1 h. Stimulation was done with 100ng/ml Semaphorin 3A units, were reached. […] First antibodies (Rabbit anti-phospho-the elution buffer containing detergent removed non- akt, Rabbit anti-akt, Cell Signaling #4060 and #9272 biotinylated peptides rendering the chip ready for analysis respectively) and mouse anti-tubulin α (Cell Signaling with monomeric biot-MTP-PlexA1. Blank surfaces were #2144) were incubated overnight at 4°C (+ anti-NRP1, used for background corrections. Injections of 30 µl anti-PlexA4 Abcam). […] Images of the immuno-blots cells per well in a 6-well plate and serum starved overnight. were acquired and analyzed thanks to the GENE GNOME Before protein extraction, the cells were treated either with apparatus (Syngene Bio Imaging, UK).

p-Akt/Akt = experiment: western blot of Akt phosphorylation in U373MG cells; format: cell-based, human; conditions: Sema3A 100 ng/ml + MTP-PlexA1 10^−7 M
Protocol: as §1, §2

TLPAIVGIGGGGGLLLLVIVAVLIAYKRK [MTP-PlexA1, synthetic transmembrane peptide mimicking the TMD of PlexA1]
reduction of NRP1/PlexA1 complexes (NRP1/PlexA1 complexes): 29.4% | decrease of PH3 positive proliferative cells in tumors [1]: 37.3% | change of NRP1 co-immunoprecipitated with PlexA1, Sema3A-induced (NRP1-PlexA1 complex; Sema3A 100 ng/ml 30 min): −24.6% | reduction of NRP1 co-immunoprecipitated with PlexA1, VEGF (NRP1-PlexA1 complex; VEGF 100 ng/ml 10 min): 39.4% | effect on Sema3A-induced inhibition of Akt phosphorylation (p-Akt/Akt): blocked
